Among the data in patent US8895590B2, “Epothilone compounds, preparation method and use thereof” (priority 2010, dated 2014) are IC50 values, retold here.

What all share (assay): Sulforhodamine B (SRB) cytotoxicity test
Holding throughout (type): cell-based
(The SRB assay estimates cell density from bound dye.)

One test concerns MCF-7 (Breast Cancer). The conditions noted are these: cells cultured 3 days with compound, read-out: Half Inhibitory Concentration for Tumor Cell Growth (IC50). How it is done:
(§1) Sulforhodamine B (SRB) test was used for screening the selective compounds of the present invention according to their anti-tumor activity on four different tumor cell lines. In SRB analysis, the cultured cells were trypsinized, counted and diluted to a suitable concentration (5000-7500 cells/100 μl) with a culture medium. The cells were inoculated into a 96-well microtiter plate at 100 μl suspension/well. After 20 hours, the test compounds which were diluted in the culture medium to 2×1000 nM˜2×0.001 nM were added to each well. The cells were then cultured for 3 days, fixed with 100 μl 10% trichloroacetic acid at 4° C. for 1 hour, and then stained with 0.2% SRB/1% acetic acid at room temperature for 20 min. The unbound dye was rinsed with 1% acetic acid. The bound dye was dissolved with 200 μl 10 mM Tris-base. The amount of the bound dye was calculated from OD value detected at the wavelength of 515 nm. The amount of the bound dye was in direct proportion to the total amount of cell proteins. The data was analyzed with Kaleida Graph program, and the half inhibitory concentration (IC50) was calculated. Epothilones D and B were detected in parallel for Comparison. The results of the cytotoxicity experiments on the selected test compounds of the present invention are shown as follows. The other compounds of the present invention may also be detected with a similar method.

Test [1] concerns NCI/ADR-RES (MDR Breast Cancer). The conditions noted are these: cells cultured 3 days with compound, read-out: Half Inhibitory Concentration for Tumor Cell Growth (IC50). How it is done: as §1
The subject of the next test is SF-268 (Glioma). To be noted: cells cultured 3 days with compound, read-out: Half Inhibitory Concentration for Bacterial Growth (IC50). How it is done:
as §1

In another test the test system is NCl-H460 (Lung Cancer). To be noted: cells cultured 3 days with compound, read-out: Half Inhibitory Concentration for Tumor Cell Growth (IC50). How it is done: as §1

Where two headings read alike, the source gives them in different places.

As for 14-N(CH3)2 Epothilone B [II-L], the IC50 came to 0.05 nM in the test on MCF-7 (Breast Cancer), 0.1 nM in test [1], 1 nM in the test on SF-268 (Glioma) and 0.5 nM in the test with NCl-H460 (Lung Cancer).
Consider 14-NH2 Epothilone B [II-B], for which the IC50 in the test on MCF-7 (Breast Cancer) is 0.1 nM; in test [1] it was 0.5 nM; in the test with SF-268 (Glioma), 0.2 nM; in the test on NCl-H460 (Lung Cancer), 0.2 nM.
In the case of 14-NH2 Epothilone D [II-A], the IC50 came to 7 nM in the test with MCF-7 (Breast Cancer), 12 nM in test [1], 6 nM in the test with SF-268 (Glioma) and 7 nM in the test with NCl-H460 (Lung Cancer).
With `C/C(=C\c1csc(C)n1)[C@@H]1C[C@@H]2O[C@]2(C)CCC[C@H](C)[C@H](O)[C@@H](C)C(=O)C(C)(C)[C@@H](O)CC(=O)O1` [Epo B, Epothilone B, reference compound], the IC50 in the test with MCF-7 (Breast Cancer) was found to be 0.5 nM; in test [1] it was 5 nM; in the test on SF-268 (Glioma) it was 0.8 nM; in the test with NCl-H460 (Lung Cancer), 0.7 nM.
For `C/C1=C/C[C@@H](/C(C)=C/c2csc(C)n2)OC(=O)C[C@H](O)C(C)(C)C(=O)[C@H](C)[C@@H](O)[C@@H](C)CCC1` [Epo D, Epothilone D, reference compound] the same measures were 13 nM, 42 nM, 18 nM and 17 nM.
With `COC1/C=C(/C)CCC[C@H](C)[C@H](O)[C@@H](C)C(=O)C(C)[C@@H](O)CC(=O)O[C@@H]1/C(C)=C/c1csc(C)n1` (stereo partly drawn) [II-N], the IC50 in the test on MCF-7 (Breast Cancer) (Homo sapiens, MCF7, 72 h) is 2 nM; in test [1] (Homo sapiens, 72 h) it was 7 nM; with SF-268 (Glioma) (Homo sapiens, 72 h), 3 nM; in the test on NCl-H460 (Lung Cancer) (72 h), 2 nM.
